How the values were obtained:
[1] = test system: MM-BRAF cells; assay: Cell death / polyploidy in parental lung cancer cells; type: cell-based, mouse
[2] = test system: RPE-MYC cells; assay: VX-680-induced cell death in RPE-MYC cells and derivatives; type: cell-based
Text: (§1) The p53 function in RPE-Myc cells can be interfered with by either a small molecule inhibitor of p53, PFT-a, (FIG. 1A), or a dominant negative p53 mutant (FIG. 1B). […] In contrast, either of these reagents conferred more than 70% protection against the cytotoxicity elicited by hydroxyurea (FIG. 1A-B), confirming that the p53 function was compromised. The conclusion was that p53 was not required for the apoptosis elicited by VX-680 in cells overexpressing MYC.
Survival signals are often mediated by the Ras-PI3K-Akt pathway. Overexpression of an active Hu-Ras^V12 elicited profound senescence in RPE-MYC cells, prevented generation of stable cell lines expressing Hu-Ras^V12, but were able to generate RPE-MYC cells expressing an active allele of MyrAkt. […] Thus, active signaling from Akt enhanced, rather than blocked, the apoptosis elicited by VX-680. The BCL family antiapoptotic factor Bcl2 is a critical regulator of mitochondrion-dependent apoptotic pathway by inhibiting cytochrome C release from mitochondria, whereas XIAP, the most characterized member of the IAP family, has been known to sequester and inactivate active caspases, proteases responsible for apoptosis. The overexpression of Bcl2 or Bcl-xL provided more than 40% protection against the cytotoxicity of VX-680 six days after administration of VX-680 (see, FIGS. 1C and 2) and that overexpression of XIAP has no effect on the MYC-dependent cytotoxicity (FIG. 1C).
Various RPEMYC derivatives used in this study were generated by stably transfecting human RPEMYC cells with a construct that expresses the gene of interest and selecting with 1 μg/ml of puromycin. Breast cancer cell line MD231MYC/Bcl2 was generated by engineering human MDA-MB-231 to stably express MYC and Bcl2. Lung cancer cell line MM-BRAF was created from mouse lung cancer model initiated by BRAF^V600E. All cell lines were cultured in DMEM supplemented with 10% fetal bovine serum and antibiotics at 5% CO2 and 95% air in a humidified incubator.
(§2) Cell death assays in response to drug treatment were performed 24 h after cells were seeded in 24-well plates. Each experiment was done in triplicate and each experiment was repeated at least twice unless indicated otherwise. Dead cells were identified by the trypan blue exclusion assay. All values are expressed as mean±1 SD of the mean.

[3] = test system: RPE-MYC cells; assay: Hydroxyurea cytotoxicity in RPE-Myc cells (p53 function control); type: cell-based, human; settings: p53 inhibition; FIG. 1A
Text: as §1, §2

In the case of COc1cc(Nc2ncc3c(n2)-c2ccc(Cl)cc2C(c2c(F)cccc2OC)=NC3)ccc1C(=O)O [MLN8237], the “effect on lung cancer cells” value ([1]; FIG. 6A legend) is reported as “cytostatic effect” and the induction of polyploidy ([1]; FIG. 6B legend) is reported as “develop polyploidy”.

Cc1cc(Nc2cc(N3CCN(C)CC3)nc(Sc3ccc(NC(=O)C4CC4)cc3)n2)[nH]n1 [VX-680] was tested, and the “effect of overexpression of XIAP on the MYC-dependent cytotoxicity” value ([2]; FIG. 1C) was “no effect”, the “sensitivity to cytotoxicity, cells expressing Myc and active Akt versus Myc alone” value ([2]; RPE cells expressing both Myc and active Akt, FIG. 1C) was “moderately more sensitive” and the “protection against the cytotoxicity by overexpression of Bcl2 or Bcl-xL” value ([2]; six days after administration, FIGS. 1C and 2) was “more than 40%”. The “cell death on exposure” value ([1]; in vitro, FIG. 6A) was “failed to undergo cell death” and the “induction of multinucleation and polyploidy” value ([1]; treatment for 4 days, FIG. 6B) was “all cells became multinucleated and polyploid”.

Cc1ccc(C(=O)Cn2c3c(sc2=N)CCCC3)cc1 [PFT-a] was tested, and the “protection from VX-680-induced cell death” value ([2]; p53 inhibition, FIG. 1A) was “Neither of these reagents protected” and the “protection against the cytotoxicity elicited by hydroxyurea” value [3] was “more than 70%”.
